pIC50: −log10 of the molar value. Activity calls are given as the source filed them. No cut-off for these calls is given here. Bounds are passed on as bounds.

Our source for the IC50 and Activity values is ChEMBL document CHEMBL4804281, “STK4 inhibitors for treatment of hematologic malignancies” (2020).

The target of assay [1] is T1, Serine/threonine-protein kinase 4 (Homo sapiens) (UniProt Q13043).
T1 sequence (whole entry): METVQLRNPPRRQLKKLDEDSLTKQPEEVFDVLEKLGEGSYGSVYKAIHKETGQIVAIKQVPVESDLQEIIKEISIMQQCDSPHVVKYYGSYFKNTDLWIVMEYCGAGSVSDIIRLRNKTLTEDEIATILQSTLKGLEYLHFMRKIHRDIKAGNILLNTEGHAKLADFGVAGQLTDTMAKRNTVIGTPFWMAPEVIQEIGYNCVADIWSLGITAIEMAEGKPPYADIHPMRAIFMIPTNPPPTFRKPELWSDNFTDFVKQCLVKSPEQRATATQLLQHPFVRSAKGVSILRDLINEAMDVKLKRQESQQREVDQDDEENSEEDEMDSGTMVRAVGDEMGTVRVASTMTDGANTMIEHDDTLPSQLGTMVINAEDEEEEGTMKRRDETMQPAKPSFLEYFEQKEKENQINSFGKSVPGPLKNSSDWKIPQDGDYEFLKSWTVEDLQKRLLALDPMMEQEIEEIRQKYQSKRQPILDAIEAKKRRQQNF
Kind of assay: Inhibition of STK4 (unknown origin) using fluorescein-labelled Ser/Thr-07 peptide as substrate incubated for 1 hr in presence of ATP at Km concentration by Z-LYTE assay.

Assay [2] has as its target T2, Serine/threonine-protein kinase 3 (Homo sapiens) (UniProt Q13188).
T2 sequence (whole entry): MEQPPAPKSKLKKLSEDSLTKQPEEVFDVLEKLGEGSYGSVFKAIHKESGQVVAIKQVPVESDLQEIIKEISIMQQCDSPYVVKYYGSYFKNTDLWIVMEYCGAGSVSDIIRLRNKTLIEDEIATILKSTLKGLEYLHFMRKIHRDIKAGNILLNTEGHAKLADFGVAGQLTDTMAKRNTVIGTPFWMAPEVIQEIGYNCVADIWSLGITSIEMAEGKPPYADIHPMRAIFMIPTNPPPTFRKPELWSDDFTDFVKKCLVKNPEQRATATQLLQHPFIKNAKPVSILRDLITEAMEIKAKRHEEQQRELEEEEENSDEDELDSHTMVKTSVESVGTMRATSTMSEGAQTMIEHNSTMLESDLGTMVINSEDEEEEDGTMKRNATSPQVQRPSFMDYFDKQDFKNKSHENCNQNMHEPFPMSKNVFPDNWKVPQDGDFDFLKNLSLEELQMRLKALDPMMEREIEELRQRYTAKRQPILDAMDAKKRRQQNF
Kind of assay: Inhibition of STK3 (unknown origin) using fluorescein-labelled Ser/Thr-07 peptide as substrate incubated for 1 hr in presence of ATP at Km concentration by Z-LYTE assay.

Assay [3] concerns the target Serine/threonine-protein kinase 24 (Homo sapiens) (UniProt Q9Y6E0). Kind of assay: Inhibition of STK24 (unknown origin) using fluorescein-labelled Ser/Thr-07 peptide as substrate incubated for 1 hr in presence of ATP at Km concentration by Z-LYTE assay.
Assay [4] concerns MM1.S. Kind of assay: Upregulation of YAP1 protein level in human MM1.S cells at 1 uM measured after 16 hrs by Western blot analysis. In kind it is functional, cell-based.
Assay [5] deals with MM1.S. Kind of assay: Downregulation of phosphorylated-MOB1 protein level in human MM1.S cells at 1 to 10 uM measured after 6 hrs by Western blot analysis. Particulars: dose 1-10 µM. In kind it is functional, cell-based. A general note: In western blotting, separated proteins are transferred to a membrane and probed.
Another assay concerns NCI-H929. Kind of assay: Upregulation of YAP1 protein level in human NCI-H929 cells at 3 to 10 uM measured after 72 hrs by Western blot analysis. In kind it is functional, cell-based. Conditions: dose 3-10 µM.
Assay [6] deals with MM1.S. Kind of assay: Upregulation of YAP1 protein level in human MM1.S cells at 3 to 10 uM measured after 72 hrs by Western blot analysis. In kind it is functional, cell-based. Conditions: dose 3-10 µM.

Chain of Serine/threonine-protein kinase 24 (Homo sapiens) (Q9Y6E0 whole entry, looked up): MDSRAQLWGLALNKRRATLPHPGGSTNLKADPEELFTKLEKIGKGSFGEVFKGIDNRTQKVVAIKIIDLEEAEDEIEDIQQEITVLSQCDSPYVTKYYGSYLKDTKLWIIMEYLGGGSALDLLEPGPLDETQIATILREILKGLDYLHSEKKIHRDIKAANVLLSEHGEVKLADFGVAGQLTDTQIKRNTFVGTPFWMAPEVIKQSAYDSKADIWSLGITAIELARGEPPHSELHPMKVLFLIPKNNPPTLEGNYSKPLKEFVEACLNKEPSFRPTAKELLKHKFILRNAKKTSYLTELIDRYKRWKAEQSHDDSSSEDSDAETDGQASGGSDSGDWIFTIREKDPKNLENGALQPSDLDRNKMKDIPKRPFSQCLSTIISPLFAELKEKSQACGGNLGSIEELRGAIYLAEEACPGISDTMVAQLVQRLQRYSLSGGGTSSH

As a reminder, the pIC50 is the IC50 on a negative log10 scale, so that one unit is a factor of ten. On to `COc1cc(S(=O)(=O)N(C)C2CCCCC2)ccc1-c1cnc(N)c(-c2ccc3c(c2)CCNC3=O)c1`, for which, in assay [1], the pIC50 was 7.40.

For `Nc1ncc(-c2cccc([N+](=O)[O-])c2)cc1-c1ccc2c(c1)CCNC2=O`, the pIC50 in assay [1] was greater than 7.40.

Regarding `CC(C)Oc1cc(NS(=O)(=O)C2CC2)ccc1-c1cnc(N)c(-c2ccc3c(c2)CCNC3=O)c1`, the pIC50 in assay [1] is greater than 7.40.

With `Nc1ncc(-c2cc([N+](=O)[O-])cc(F)c2F)cc1-c1ccc2c(c1)CCNC2=O`, in assay [1], the pIC50 is 7.40.

With `CN1CCc2cc(-c3cc(-c4cccc5ncsc45)cnc3N)ccc2C1=O`, in assay [1], the pIC50 is 7.40.

For the compound `CN(C1CC1)S(=O)(=O)c1ccc(-c2cnc(N)c(-c3ccc4c(=O)[nH]cnc4c3)c2)c(F)c1`, the pIC50 in assay [1] is greater than 7.40.

Regarding `Nc1ncc(-c2cccc(S(N)(=O)=O)c2)cc1-c1ccc2c(c1)CCNC2=O`, in assay [1], the pIC50 is 6.70.

`CN1CCc2cc(-c3cc(-c4ccc(S(=O)(=O)N(C)C5CC5)cc4F)cnc3N)ccc2C1=O`: the pIC50 in assay [1] is greater than 7.40.

As for `Nc1ncc(-c2ccc(F)c3ncsc23)cc1-c1ccc2c(c1)CNC2=O`, in assay [1], the pIC50 is 7.40.

`CN(C1CC1)S(=O)(=O)c1ccc(-c2cnc(N)c(-c3ccc4c(c3)CNC4=O)c2)c(F)c1`: the pIC50 in assay [2] was greater than 7.40; in assay [1], greater than 7.40; in assay [3] it was less than 6.05.

In the case of `Nc1ncc(-c2ccc(F)c3ncsc23)cc1-c1ccc2c(c1)CCNC2=O`, the pIC50 in assay [1] was greater than 7.40.

In the case of `CC(C)Oc1cc(S(=O)(=O)N(C)C2CC2)ccc1-c1cnc(N)c(-c2ccc3c(c2)CCNC3=O)c1`, the negative logarithm of the IC50 (pIC50) in assay [1] is greater than 7.40.

With `NC(=O)c1ccc(-c2cc(-c3cc([N+](=O)[O-])ccc3F)cnc2N)cc1Cl`, the pIC50 in assay [1] is 6.70.

On to `Nc1ncc(-c2cc(F)cc([N+](=O)[O-])c2)cc1-c1ccc2c(c1)CCNC2=O`, for which, in assay [1], the pIC50 was 7.40.

Take `Nc1ncc(-c2cccc(NS(=O)(=O)C3CC3)c2)cc1-c1ccc2c(c1)CCNC2=O`: the pIC50 in assay [1] was greater than 7.40.

For `CN(C1CC1)S(=O)(=O)c1ccc(-c2cnc(N)c(-c3ccc4c(c3)CCNC4=O)c2)cc1`, the result with MM1.S [4] was Active. For the same compound, the pIC50 in assay [1] is greater than 7.40.

For `COc1cc(S(=O)(=O)N(C)C2CCOCC2)ccc1-c1cnc(N)c(-c2ccc3c(c2)CCNC3=O)c1`, the negative-log IC50 (pIC50) in assay [1] was 7.40.

As for `C#Cc1cc(F)c(-c2cnc(N)c(-c3ccc4c(c3)CCNC4=O)c2)cc1[N+](=O)[O-]`, in assay [1], the pIC50 is 7.40.

For `Cc1cc(N2CCOCC2)cc2[nH]c(-c3c(NC[C@@H](O)c4cccc(Cl)c4)cc[nH]c3=O)nc12`, in the assay on MM1.S [4], the result was inactive. Besides, the pIC50 in assay [1] is 7.40.

On to `Nc1ncc(-c2cc([N+](=O)[O-])cnc2F)cc1-c1ccc2c(c1)CCNC2=O`, for which the pIC50 in assay [1] was 6.70.

`N#Cc1cccc(-c2cnc(N)c(-c3ccc4c(c3)CCNC4=O)c2)c1`: the pIC50 in assay [2] is 7.40; in assay [1] it was 7.40; in assay [3], 6.70.

Take `Cc1cc(S(=O)(=O)N(C)C2CC2)ccc1-c1cnc(N)c(-c2ccc3c(c2)CCNC3=O)c1`: the pIC50 in assay [1] is greater than 7.40.

For `CCOc1cc(S(=O)(=O)N(C)C2CC2)ccc1-c1cnc(N)c(-c2ccc3c(c2)CCNC3=O)c1`, in assay [1], the pIC50 was greater than 7.40.

For `Nc1ncc(-c2ccc([N+](=O)[O-])cc2F)cc1-c1ccc2c(c1)CCNC2=O`, the pIC50 in assay [1] is 7.40.

In the case of `N#Cc1cc(-c2cc(-c3cc([N+](=O)[O-])ccc3F)cnc2N)ccc1O`, the pIC50 in assay [1] was 6.70.

Regarding `NC(=O)c1ccc(-c2cc(-c3cc([N+](=O)[O-])ccc3F)cnc2N)cc1`, the pIC50 in assay [1] was 6.70.

As to `Nc1ncc(-c2cc(-c3cccc4ncsc34)ccc2F)cc1-c1ccc2c(=O)[nH]cnc2c1`, the pIC50 in assay [1] was 7.40.

Take `Nc1ncc(-c2scnc2Cl)cc1-c1ccc2c(c1)CCNC2=O`: the pIC50 was 7.40 in assay [2], 7.40 in assay [1] and less than 6.05 in assay [3].

As to `COc1ccncc1-c1cnc(N)c(-c2ccc3c(c2)CCNC3=O)c1`, the pIC50 in assay [1] is less than 6.05.

`CCNC(=O)c1ccc(F)c(-c2cnc(N)c(-c3ccc4c(c3)CCNC4=O)c2)c1`: in assay [1], the pIC50 is less than 6.05.

With `Cn1cnc2c(-c3cnc(N)c(-c4ccc5c(c4)CCNC5=O)c3)cccc21`, in assay [1], the pIC50 was 7.40.

With `CC(C)Oc1cc(S(=O)(=O)N(C)C2CC2)ccc1-c1cnc(N)c(-c2ccc3c(c2)CNC3=O)c1`, in assay [1], the pIC50 was greater than 7.40.

For the compound `Nc1ncc(-c2cc(F)ccc2[N+](=O)[O-])cc1-c1ccc2c(c1)CCNC2=O`, the negative-log IC50 (pIC50) in assay [1] is less than 6.05.

Regarding `Nc1ncc(-c2cc3c(cc2F)OCC(=O)N3)cc1-c1ccc2c(c1)CCNC2=O`, in the assay with MM1.S [5], the outcome was Active. Besides, the figures for the pIC50 in assay [2] and in assay [1] were 7.40 and greater than 7.40, respectively.

In the case of `Nc1ncc(-c2ccc3ncsc3c2)cc1-c1ccc2c(c1)CCNC2=O`, the pIC50 in assay [1] is 7.40.

As to `COc1cc(-c2nccs2)ccc1-c1cnc(N)c(-c2ccc3c(c2)CCNC3=O)c1`, in assay [1], the pIC50 was 7.40.

`Nc1ncc(-c2ccccc2F)cc1-c1ccc2c(c1)CCNC2=O`: in assay [1], the pIC50 was 7.40.

Regarding `Nc1ncc(-c2cccc(S(=O)(=O)NC3CC3)c2)cc1-c1ccc2c(c1)CCNC2=O`, the pIC50 is 7.40 in assay [2], 7.40 in assay [1] and 6.70 in assay [3]. The outcome with NCI-H929 and in the assay on MM1.S [6] was Active.

For `C#Cc1ccc(-c2cnc(N)c(-c3ccc4c(c3)CCNC4=O)c2)c(OC)c1`, the pIC50 in assay [1] is greater than 7.40.

For the compound `Nc1ncc(-c2cc([N+](=O)[O-])c(Cl)cc2F)cc1-c1ccc2c(c1)CCNC2=O`, the result with MM1.S [5] was Active. Besides, the pIC50 in assay [2] and in assay [1] was 7.40 in each case.

In the case of `Nc1ncc(-c2cccc3sccc23)cc1-c1ccc2c(c1)CCNC2=O`, in assay [1], the pIC50 was greater than 7.40.

As to `COc1cc(S(=O)(=O)N(C)C2CC2)ccc1-c1cnc(N)c(-c2ccc3c(c2)CCNC3=O)c1`, the pIC50 in assay [2] is greater than 7.40; in assay [1], greater than 7.40; in assay [3], 7.40.

On to `Nc1ncc(-c2cccc(-c3nccs3)c2)cc1-c1ccc2c(c1)CCNC2=O`, for which, in assay [1], the pIC50 was greater than 7.40.

`Nc1ncc(-c2cnccc2F)cc1-c1ccc2c(c1)CCNC2=O`: the pIC50 in assay [1] was 6.70.

With `Nc1ncc(-c2ccc(NS(=O)(=O)C3CC3)cc2OC2CCCC2)cc1-c1ccc2c(c1)CCNC2=O`, the pIC50 in assay [1] was greater than 7.40.

For the compound `Nc1ncc(-c2cc([N+](=O)[O-])c(NCc3ccccc3)cc2F)cc1-c1ccc2c(c1)CCNC2=O`, the result in the assay with MM1.S [5] was Active. In addition, the pIC50 in assay [1] is 7.40.

`COc1cc(S(=O)(=O)NC2CC2)ccc1-c1cnc(N)c(-c2ccc3c(c2)CCNC3=O)c1`: the pIC50 in assay [1] is greater than 7.40.

In the case of `Nc1ncc(-c2cc3scnc3cc2F)cc1-c1ccc2c(c1)CCNC2=O`, the pIC50 in assay [1] is 7.40.

As to `Nc1ncc(-c2ccc(NS(=O)(=O)C3CC3)cc2OCc2ccccc2)cc1-c1ccc2c(c1)CCNC2=O`, the pIC50 in assay [1] was 7.40.

As for `Nc1ncc(-c2cccc3scnc23)cc1-c1ccc2c(c1)CCNC2=O`, in assay [1], the pIC50 was 7.40.

On to `Nc1ncc(-c2cncc3ncsc23)cc1-c1ccc2c(c1)CCNC2=O`, for which the pIC50 in assay [1] was 6.70.

With `Nc1ncc(-c2cc([N+](=O)[O-])ccc2Cl)cc1-c1ccc2c(c1)CCNC2=O`, the pIC50 in assay [1] is less than 6.05.
